Data taken from patent US11572590B2, “Methods for evaluating tumor cell spheroids using 3D microfluidic cell culture device” (Dana-Farber Cancer Institute, Inc., priority 2017, dated 2023).
Read-outs that look alike come from different tables or passages of the source.

Tests used:
Test in all cases: SelectScreen Kinase Profiling, single point inhibition and IC50 for off-target kinases
Type in all cases: biochemical
off-target kinases [1] = target: off-target kinases (Homo sapiens, UniProt P57059); conditions: SIK1, LanthaScreen Binding
off-target kinases [2] = target: off-target kinases (Homo sapiens, UniProt P11362, V561M); conditions: FGFR1 V561M, mutant y, LanthaScreen Binding
off-target kinases [3] = target: off-target kinases (Homo sapiens, UniProt P17948); conditions: FLT1 (VEGFR1), ZLYTE, ATP Km app
off-target kinases [4] = target: off-target kinases (Homo sapiens, UniProt P53667); conditions: LIMK1, LanthaScreen Binding
off-target kinases [5] = target: off-target kinases (Homo sapiens, UniProt P10721, T670I/V559D); conditions: KIT V559D T670I, LanthaScreen Binding
off-target kinases [6] = target: off-target kinases (Homo sapiens, UniProt Q86Z02); conditions: HIPK1 (Myak), ZLYTE, ATP Km app
off-target kinases [7] = target: off-target kinases (Homo sapiens, UniProt Q8N4C8); conditions: MINK1, ATP Km app, ZLYTE
off-target kinases [8] = target: off-target kinases (Homo sapiens, UniProt O75676); conditions: RPS6KA4 (MSK2), ZLYTE, ATP Km app
off-target kinases [9] = target: off-target kinases (Homo sapiens, UniProt P06239); conditions: LCK, ZLYTE, ATP Km app
off-target kinases [10] = target: off-target kinases (Homo sapiens, UniProt P28482); conditions: MAPK1 (ERK2), ZLYTE, ATP Km app
off-target kinases [11] = target: off-target kinases (Homo sapiens, UniProt Q9UBF8); conditions: PI4KB (PI4K beta), Adapta, ATP Km app
Sequence of off-target kinases (Homo sapiens, UniProt Q9UBF8) (Q9UBF8 whole entry): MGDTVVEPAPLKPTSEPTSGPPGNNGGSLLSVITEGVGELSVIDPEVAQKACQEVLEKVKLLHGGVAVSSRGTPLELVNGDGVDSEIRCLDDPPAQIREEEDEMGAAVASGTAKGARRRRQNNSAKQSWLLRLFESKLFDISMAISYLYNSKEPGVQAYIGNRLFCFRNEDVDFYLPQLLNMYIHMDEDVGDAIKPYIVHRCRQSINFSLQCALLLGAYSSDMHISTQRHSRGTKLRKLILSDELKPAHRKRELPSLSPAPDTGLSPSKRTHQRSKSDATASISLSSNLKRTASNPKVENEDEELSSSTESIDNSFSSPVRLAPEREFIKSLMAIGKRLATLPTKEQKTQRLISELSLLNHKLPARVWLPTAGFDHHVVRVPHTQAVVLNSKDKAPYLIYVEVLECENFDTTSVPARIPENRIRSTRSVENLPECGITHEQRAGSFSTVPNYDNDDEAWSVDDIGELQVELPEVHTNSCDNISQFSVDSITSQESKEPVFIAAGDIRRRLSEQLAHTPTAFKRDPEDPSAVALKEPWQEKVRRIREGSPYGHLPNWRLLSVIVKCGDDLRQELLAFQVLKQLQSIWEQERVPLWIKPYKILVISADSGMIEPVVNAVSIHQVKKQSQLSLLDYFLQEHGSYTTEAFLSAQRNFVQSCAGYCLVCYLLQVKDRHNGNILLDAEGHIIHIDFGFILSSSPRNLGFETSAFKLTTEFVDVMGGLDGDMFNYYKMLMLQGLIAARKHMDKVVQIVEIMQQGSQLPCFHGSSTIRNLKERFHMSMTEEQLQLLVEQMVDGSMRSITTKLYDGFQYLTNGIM

Sequence of off-target kinases (Homo sapiens, UniProt Q86Z02) (Q86Z02 whole entry): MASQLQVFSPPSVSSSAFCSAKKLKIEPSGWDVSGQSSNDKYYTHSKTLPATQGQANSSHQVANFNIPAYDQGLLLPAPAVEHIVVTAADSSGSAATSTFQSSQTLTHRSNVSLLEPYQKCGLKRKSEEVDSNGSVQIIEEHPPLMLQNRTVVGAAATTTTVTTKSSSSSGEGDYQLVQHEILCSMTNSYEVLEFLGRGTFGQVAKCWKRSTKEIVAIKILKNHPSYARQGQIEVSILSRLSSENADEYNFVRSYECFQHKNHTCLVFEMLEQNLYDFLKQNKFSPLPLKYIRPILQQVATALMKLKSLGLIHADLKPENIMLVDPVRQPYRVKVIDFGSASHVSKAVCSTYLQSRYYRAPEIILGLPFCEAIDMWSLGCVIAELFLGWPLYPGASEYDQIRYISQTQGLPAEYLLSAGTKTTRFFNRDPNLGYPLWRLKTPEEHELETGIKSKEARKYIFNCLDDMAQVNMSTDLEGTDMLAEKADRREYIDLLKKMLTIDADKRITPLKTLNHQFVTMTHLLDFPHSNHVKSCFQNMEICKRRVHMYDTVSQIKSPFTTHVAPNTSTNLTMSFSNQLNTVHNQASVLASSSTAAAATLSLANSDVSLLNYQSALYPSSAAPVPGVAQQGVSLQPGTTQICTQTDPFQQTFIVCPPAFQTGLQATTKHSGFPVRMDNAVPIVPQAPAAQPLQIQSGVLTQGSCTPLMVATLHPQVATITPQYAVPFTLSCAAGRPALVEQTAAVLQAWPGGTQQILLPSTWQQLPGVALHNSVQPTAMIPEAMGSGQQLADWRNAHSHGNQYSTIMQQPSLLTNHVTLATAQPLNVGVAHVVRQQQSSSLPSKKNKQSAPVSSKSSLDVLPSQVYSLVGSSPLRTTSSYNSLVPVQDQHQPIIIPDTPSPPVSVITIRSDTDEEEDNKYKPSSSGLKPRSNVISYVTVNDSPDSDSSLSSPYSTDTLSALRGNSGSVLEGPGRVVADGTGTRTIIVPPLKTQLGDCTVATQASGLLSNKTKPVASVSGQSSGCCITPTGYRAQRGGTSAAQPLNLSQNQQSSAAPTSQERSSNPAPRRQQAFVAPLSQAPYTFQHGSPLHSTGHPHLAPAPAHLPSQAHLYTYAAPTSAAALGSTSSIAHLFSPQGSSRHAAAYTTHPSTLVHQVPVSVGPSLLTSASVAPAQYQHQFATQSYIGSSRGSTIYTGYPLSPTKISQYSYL
Sequence of off-target kinases (Homo sapiens, UniProt P11362, V561M) (P11362 22-822 V561M): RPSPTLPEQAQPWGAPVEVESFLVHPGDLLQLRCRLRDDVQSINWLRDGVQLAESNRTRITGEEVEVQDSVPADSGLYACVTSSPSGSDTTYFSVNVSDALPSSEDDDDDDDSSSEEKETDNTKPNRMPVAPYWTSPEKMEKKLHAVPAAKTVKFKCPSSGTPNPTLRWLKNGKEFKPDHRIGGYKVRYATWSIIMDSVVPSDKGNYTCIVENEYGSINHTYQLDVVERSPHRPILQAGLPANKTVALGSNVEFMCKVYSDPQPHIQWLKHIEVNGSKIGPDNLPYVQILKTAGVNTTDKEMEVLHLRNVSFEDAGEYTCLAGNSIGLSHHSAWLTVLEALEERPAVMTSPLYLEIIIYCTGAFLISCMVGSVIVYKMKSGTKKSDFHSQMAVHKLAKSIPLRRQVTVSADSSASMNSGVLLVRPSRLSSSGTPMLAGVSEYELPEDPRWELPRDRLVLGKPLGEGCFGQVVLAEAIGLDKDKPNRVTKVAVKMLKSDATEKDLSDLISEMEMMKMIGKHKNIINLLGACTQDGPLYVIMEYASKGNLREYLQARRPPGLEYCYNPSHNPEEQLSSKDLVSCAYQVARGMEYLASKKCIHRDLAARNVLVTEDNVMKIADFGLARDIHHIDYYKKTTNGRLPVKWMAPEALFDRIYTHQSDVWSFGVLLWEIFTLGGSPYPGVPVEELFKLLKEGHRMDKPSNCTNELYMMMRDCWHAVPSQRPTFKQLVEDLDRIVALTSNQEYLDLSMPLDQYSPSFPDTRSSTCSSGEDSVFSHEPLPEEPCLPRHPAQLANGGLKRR
Sequence of off-target kinases (Homo sapiens, UniProt P57059) (P57059 whole entry): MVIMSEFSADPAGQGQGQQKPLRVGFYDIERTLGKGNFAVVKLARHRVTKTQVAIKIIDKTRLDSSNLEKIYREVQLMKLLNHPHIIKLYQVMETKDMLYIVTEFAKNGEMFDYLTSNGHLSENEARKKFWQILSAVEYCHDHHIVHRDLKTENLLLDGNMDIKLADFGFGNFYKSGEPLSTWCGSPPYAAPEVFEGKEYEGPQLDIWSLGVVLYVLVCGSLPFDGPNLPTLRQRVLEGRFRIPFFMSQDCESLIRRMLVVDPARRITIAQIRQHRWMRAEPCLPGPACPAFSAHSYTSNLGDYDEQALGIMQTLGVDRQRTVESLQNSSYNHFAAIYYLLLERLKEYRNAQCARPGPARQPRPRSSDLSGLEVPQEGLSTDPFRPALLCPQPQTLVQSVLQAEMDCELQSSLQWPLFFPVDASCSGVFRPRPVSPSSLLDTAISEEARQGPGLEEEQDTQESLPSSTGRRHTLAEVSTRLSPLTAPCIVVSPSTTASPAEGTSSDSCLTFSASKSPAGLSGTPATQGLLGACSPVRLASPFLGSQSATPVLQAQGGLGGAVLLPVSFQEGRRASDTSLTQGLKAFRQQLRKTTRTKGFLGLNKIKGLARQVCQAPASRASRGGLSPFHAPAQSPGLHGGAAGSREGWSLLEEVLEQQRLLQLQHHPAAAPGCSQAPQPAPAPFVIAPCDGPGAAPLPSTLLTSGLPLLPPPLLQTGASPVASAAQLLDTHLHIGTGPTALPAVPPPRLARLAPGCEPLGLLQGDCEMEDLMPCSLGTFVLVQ
Sequence of off-target kinases (Homo sapiens, UniProt P17948) (P17948 27-1338): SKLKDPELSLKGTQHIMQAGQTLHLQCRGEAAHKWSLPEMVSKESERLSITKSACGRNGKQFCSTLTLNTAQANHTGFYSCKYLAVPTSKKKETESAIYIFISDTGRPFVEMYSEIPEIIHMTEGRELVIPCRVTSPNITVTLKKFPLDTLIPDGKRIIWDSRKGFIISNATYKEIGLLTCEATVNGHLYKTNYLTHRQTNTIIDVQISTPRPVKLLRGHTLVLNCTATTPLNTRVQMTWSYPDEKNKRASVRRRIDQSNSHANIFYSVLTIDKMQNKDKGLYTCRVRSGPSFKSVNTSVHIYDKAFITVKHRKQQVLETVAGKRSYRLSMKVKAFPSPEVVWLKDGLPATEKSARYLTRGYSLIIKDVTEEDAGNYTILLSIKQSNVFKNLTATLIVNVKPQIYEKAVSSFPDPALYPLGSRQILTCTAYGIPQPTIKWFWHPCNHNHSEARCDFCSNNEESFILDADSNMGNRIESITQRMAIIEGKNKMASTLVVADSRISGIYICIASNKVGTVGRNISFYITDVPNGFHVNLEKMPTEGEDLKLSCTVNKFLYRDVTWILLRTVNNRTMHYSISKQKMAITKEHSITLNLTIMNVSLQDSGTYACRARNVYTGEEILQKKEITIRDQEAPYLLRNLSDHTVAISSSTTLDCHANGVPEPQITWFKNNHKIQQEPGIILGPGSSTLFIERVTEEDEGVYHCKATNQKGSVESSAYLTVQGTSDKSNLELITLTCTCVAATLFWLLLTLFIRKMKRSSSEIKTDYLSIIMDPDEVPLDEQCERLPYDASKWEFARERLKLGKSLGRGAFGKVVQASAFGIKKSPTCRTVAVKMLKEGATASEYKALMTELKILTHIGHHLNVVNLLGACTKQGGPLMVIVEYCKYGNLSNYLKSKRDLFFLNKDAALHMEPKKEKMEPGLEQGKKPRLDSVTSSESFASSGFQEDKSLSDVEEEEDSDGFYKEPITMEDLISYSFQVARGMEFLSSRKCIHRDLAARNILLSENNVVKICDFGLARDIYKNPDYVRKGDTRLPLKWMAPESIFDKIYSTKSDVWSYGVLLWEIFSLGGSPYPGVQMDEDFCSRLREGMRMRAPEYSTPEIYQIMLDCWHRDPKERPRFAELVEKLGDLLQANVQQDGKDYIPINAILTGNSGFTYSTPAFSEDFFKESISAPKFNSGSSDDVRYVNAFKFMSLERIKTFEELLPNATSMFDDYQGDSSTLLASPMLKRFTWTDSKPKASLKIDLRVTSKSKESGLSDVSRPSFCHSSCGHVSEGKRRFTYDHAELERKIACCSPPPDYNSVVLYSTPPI

## N#Cc1cc(-c2ncnc(Nc3ccc(N4CCN(C5COC5)CC4)cc3)n2)ccc1OC1CCOCC1 [Compound 1, 5-(4-((4-(4-(oxetan-3-yl)piperazin-1-yl)phenyl)amino)-1,3,5-triazin-2-yl)-2-((tetrahydro-2H-pyran-4-yl)oxy)benzonitrile]
off-target kinases [1]; read-out: % Inhibition 1
  inhibition: 57%
off-target kinases [1]; read-out: % Inhibition 2
  inhibition: 54%
off-target kinases [1]; read-out: % Inhibition Avg
  inhibition: 56%
off-target kinases [2]; read-out: % Inhibition 1
  inhibition: 20%
off-target kinases [2]; read-out: % Inhibition 2
  inhibition: 25%
off-target kinases [2]; read-out: % Inhibition Avg
  inhibition: 23%
off-target kinases [3]; read-out: % Inhibition 1
  inhibition: 7%
off-target kinases [3]; read-out: % Inhibition 2
  inhibition: 4%
off-target kinases [3]; read-out: % Inhibition Avg
  inhibition: 6%
off-target kinases [4]; read-out: % Inhibition 1
  inhibition: 40%
off-target kinases [4]; read-out: % Inhibition 2
  inhibition: 39%
off-target kinases [4]; read-out: % Inhibition Avg
  inhibition: 40%
off-target kinases [5]; read-out: % Inhibition 1
  inhibition: 46%
off-target kinases [5]; read-out: % Inhibition 2
  inhibition: 49%
off-target kinases [5]; read-out: % Inhibition Avg
  inhibition: 47%
off-target kinases [6]; read-out: % Inhibition 1
  inhibition: 11%
off-target kinases [6]; read-out: % Inhibition 2
  inhibition: 13%
off-target kinases [6]; read-out: % Inhibition Avg
  inhibition: 12%
off-target kinases [7]; read-out: % Inhibition 1
  inhibition: 66%
off-target kinases [7]; read-out: % Inhibition 2
  inhibition: 70%
off-target kinases [7]; read-out: % Inhibition Avg
  inhibition: 68%
off-target kinases [8]; read-out: % Inhibition 1
  inhibition: 0%
off-target kinases [8]; read-out: % Inhibition 2
  inhibition: 2%
off-target kinases [8]; read-out: % Inhibition Avg
  inhibition: 1%
off-target kinases [9]; read-out: % Inhibition 1
  inhibition: 41%
off-target kinases [9]; read-out: % Inhibition 2
  inhibition: 38%
off-target kinases [9]; read-out: % Inhibition Avg
  inhibition: 40%
off-target kinases [10]; read-out: % Inhibition 1
  inhibition: 6%
off-target kinases [10]; read-out: % Inhibition 2
  inhibition: 6%
off-target kinases [10]; read-out: % Inhibition Avg
  inhibition: 6%
off-target kinases [11]; read-out: % Inhibition 1
  inhibition: 7%
off-target kinases [11]; read-out: % Inhibition 2
  inhibition: 3%
off-target kinases [11]; read-out: % Inhibition Avg
  inhibition: 5%
